Source: article PMC8401404 (Molecules, 2021)
Converted amounts (≈) assume the structure as drawn. Structures can show the parent of a compound that is named as a salt. Where two headings read alike, the source gives them in different places.

What was measured:
E. coli ATCC 25922 = test: Broth microdilution testing (CLSI); assay type: cell-based, Escherichia coli; conditions: broth microdilution, 16–24h at 37 °C, read-out: MIC E. coli ATCC 25922
Procedure: (§1) Broth microdilution testing was performed according to CLSI (Clinical Laboratory Standards Institute) guidelines. MIC (minimal inhibitory concentration) value was defined as the last tested concentration of compound at which there is no visible growth of bacteria. […] Clinical and Laboratory Standards Institute (CLSI) guidelines.

S. aureus ATCC 29213 = test: Broth microdilution testing (CLSI); assay type: cell-based, Staphylococcus aureus; conditions: 16–24h at 37 °C, read-out: MIC S. aureus ATCC 29213
Procedure: as §1

S. cerevisiae ATCC 7752 = test: Broth microdilution testing (CLSI); assay type: cell-based, Saccharomyces cerevisiae; conditions: broth microdilution, 16–24h at 37 °C, read-out: MIC S. cerevisiae ATCC 7752
Procedure: as §1

A549 [1] = test: MTS cytotoxicity assay, 2D cell culture; conditions: Homo sapiens, A549, 72 h, read-out: Cytotoxicity Assay IC50 ± SD; A549 2D, 72 h, MTS; n = 2
Procedure: (§2) MTS assay gives us information about the number of living cells, in this case, metabolically active cells, whereas the BrdU proliferation assay gives a measure of the cell population in active division phase. Both assays were performed in 2D and 3D assay formats. For the 2D cell assay format, we used classic two-dimensional in vitro assays and as a 3D assay we used a hanging drop proliferation cell assay as previously described. We explored the activity of compounds on three human lung cancer cell lines, A549, HCC827 and NCI-H358. The compound activity was also tested on human lung fibroblast cell line MRC-5. A two-dimensional in vitro viability assay was performed on the MRC-5 cell line to see if tested compounds are cytotoxic on normal cell lines in low concentrations. […] 7.1.
(§3) Test compounds were synthesized by a research group at the Department of Organic Chemistry, Faculty of Chemical Engineering and Technology, University of Zagreb. […] Compounds were diluted 1:3. We transferred 500 nL (for 2D cell culture) or 400 nL (for 3D cell culture) of the compound from a mother plate to test plate by using Mosquito (TTP labtech). DMSO percentage in test concentrations was 0.5–1.0%. Starting concentration of the test compounds and standard compound doxorubicin was 50 µM (2D cell culture) or 100 µM (3D cell culture).
(§4) Cells were grown in 96-well cell star polystyrene plates. We seeded 10,000 cells/well in wells 4 h prior to the treatment with different compounds concentrations and incubated for 72 h. A cell viability assay was performed according to the manufacturer’s instructions, using CellTiter 96 aqueous solution, MTS kit (Promega, Madison, WI, USA). After 0.5–2 h of cell incubation with MTS in 2D cell culture, the plates were read using PE EnVision absorbance at 490 nm.
(§5) Calculation of IC50 data, curves and QC analysis was performed by using Excel tools and GraphPadPrism software (La Jolla, CA, USA), v. […] QC criteria parameters (Z’, S:B, R2, HillSlope) were checked for every IC50 curve.

HCC827 [2] = test: MTS cytotoxicity assay, 2D cell culture; conditions: Homo sapiens, HCC827, 72 h, read-out: Cytotoxicity Assay IC50 ± SD; HCC827 2D
Procedure: as §2, §3, §4, §5

NCI-H358 [3] = test: MTS cytotoxicity assay, 2D cell culture; conditions: Homo sapiens, NCI-H358, 72 h, read-out: Cytotoxicity Assay IC50 ± SD; NCI-H358 2D
Procedure: as §2, §3, §4, §5

A549 [4] = test: Cytotoxicity (viability) assay, 3D hanging drop cell culture; conditions: Homo sapiens, A549, 72 h, read-out: Cytotoxicity Assay IC50 ± SD; A549 3D
Procedure: as §2, §3
(§6) Cells were grown in 96-well Perfecta 3D hanging drop plates 5000 cell/well for 4 days until spheres were formed (and checked under the microscope). After sphere formation cells were treated with compounds followed by 72 h incubation. Cell viability assay was performed according to the manufacturer’s instructions, using CellTiter GLO 3D for 3D cell culture (Promega); cell incubation was 5 min on the shaker followed by 25 min incubation in the dark. Plates were read using PE EnVision luminescence.
as §5

HCC827 [5] = test: as above; conditions: Homo sapiens, HCC827, 72 h, read-out: Cytotoxicity Assay IC50 ± SD; HCC827 3D
Procedure: as §2, §3, §6, §5

NCI-H358 [6] = test: as above; conditions: Homo sapiens, NCI-H358, 72 h, read-out: Cytotoxicity Assay IC50 ± SD; NCI-H358 3D
Procedure: as §2, §3, §6, §5

in vitro = conditions: human
Procedure: as §2, §3, §4, §5

A549 [7] = test: BrdU proliferation assay, 2D cell culture; assay type: cell-based, human; conditions: Homo sapiens, A549, 2D, BrdU, n = 2, read-out: Proliferation Assay IC50 ± SD
Procedure: as §2, §3, §4
(§7) Proliferation assay was performed using Cell Proliferation ELISA, BrdU (Sigma, St. Louis, MO, USA). Briefly, 48 h hours after compound addition, 10 µM of BrdU was added to each well and incubated for the following 24 h. After incubation, a single cell suspension was made for 3D cell culture in the new 96-well plate. Plates were centrifuged and supernatants were removed from each plate (for 2D and 3D cell culture) followed by 60 min incubation at 60 °C. The rest of the proliferation assay was performed according to the manufacturer’s instructions.
as §5

HCC827 [8] = test: BrdU proliferation assay, 2D cell culture; assay type: cell-based, human; conditions: Homo sapiens
Procedure: as §2, §3, §4, §7, §5

NCI-H358 [9] = test: BrdU proliferation assay, 2D cell culture; assay type: cell-based, human; conditions: Homo sapiens, NCI-H358, 2D, n = 2, read-out: Proliferation Assay IC50 ± SD
Procedure: as §2, §3, §4, §7, §5

A549 [10] = test: BrdU proliferation assay, 3D hanging drop cell culture; assay type: cell-based, human; conditions: Homo sapiens, A549, 3D, BrdU, n = 2, read-out: Proliferation Assay IC50 ± SD
Procedure: as §2, §3, §6, §7, §5

HCC827 [11] = test: as above; assay type: cell-based, human; conditions: Homo sapiens
Procedure: as §2, §3, §6, §7, §5

NCI-H358 [12] = test: as above; assay type: cell-based, human; conditions: Homo sapiens, NCI-H358, 3D, n = 2, read-out: Proliferation Assay IC50 ± SD
Procedure: as §2, §3, §6, §7, §5

[13] = Staphylococcus aureus, ATCC29213, broth microdilution
[14] = Saccharomyces cerevisiae, ATCC7752

## CC(C)(O/N=C(\C(=O)N[C@@H]1C(=O)N2C(C(=O)[O-])=C(C[n+]3ccccc3)CS[C@H]12)c1csc(N)n1)C(=O)O [Ceftazidime, reference compound]
E. coli ATCC 25922; Escherichia coli, ATCC25922
  MIC: < 0.125 µM
S. aureus ATCC 29213; [13]
  MIC: 16 µM (≈ 8.75 µg/mL)
S. cerevisiae ATCC 7752; [14]
  MIC: > 64 µM

## COc1cccc2c1C(=O)c1c(O)c3c(c(O)c1C2=O)C[C@@](O)(C(=O)CO)C[C@@H]3O[C@H]1C[C@H](N)[C@H](O)[C@H](C)O1 [Doxorubicin, reference compound]
A549 [1]
  IC50: 1310 ± 110 nM
HCC827 [2]
  IC50: 320 ± 30 nM
NCI-H358 [3]
  IC50: 150 ± 60 nM
A549 [4]
  IC50: 5860 ± 1100 nM
HCC827 [5]
  IC50: 1470 ± 120 nM
NCI-H358 [6]
  IC50: 990 ± 150 nM
In vitro
  IC50 at 72 h: 600 ± 10 nM
A549 [7]
  IC50: 130 ± 10 nM
HCC827 [8]; HCC827, 2D, BrdU, n = 2, read-out: Proliferation Assay IC50 ± SD
  IC50: 250 ± 280 nM
NCI-H358 [9]
  IC50: 70 ± 40 nM
A549 [10]
  IC50: 480 ± 30 nM
HCC827 [11]; HCC827, 3D, BrdU, n = 2, read-out: Proliferation Assay IC50 ± SD
  IC50: 1890 ± 2300 nM
NCI-H358 [12]
  IC50: 2300 ± 1910 nM

## Gentamycin [reference compound]
E. coli ATCC 25922
  MIC: 0.5 µM
S. aureus ATCC 29213; broth microdilution
  MIC: 0.25 µM
S. cerevisiae ATCC 7752
  MIC: >64 µM

## O=[N+]([O-])c1ccc(-c2ccc(-c3nc4cc(C5=NCCN5)ccc4[nH]3)o2)cc1 (as salt: hydrochloride) [Compound 12, 5(6)-(4,5-Dihydro-1H-imidazol-2-yl)-2-[5-(4-nitrophenyl)furan-2-yl]benzimidazole hydrochloride]
other
  melting point: > 270 °C

## CC1(C)S[C@@H]2[C@H](NC(=O)[C@H](N)c3ccccc3)C(=O)N2[C@H]1C(=O)O [Ampicillin, reference compound]
E. coli ATCC 25922; Escherichia coli, ATCC25922
  MIC: 4 µM (≈ 1.4 µg/mL)
S. aureus ATCC 29213; [13]
  MIC: 2 µM (≈ 0.699 µg/mL)
S. cerevisiae ATCC 7752; [14]
  MIC: > 64 µM

## CC(C)NC(=N)c1ccc2nc(-c3ccc(-c4ccc(Cl)cc4)o3)sc2c1 (as salt: hydrochloride) [Compound 8, 2-[5-(4-Chlorophenyl)furan-2-yl]-6-N-isopropilamidinobenzothiazole hydrochloride]
other
  melting point: 204 to 208 °C

## COc1cc2c(Nc3ccc(Br)cc3F)ncnc2cc1OCC1CCN(C)CC1 [Vandetanib, reference compound]
A549 [1]
  IC50: > 25000 nM
HCC827 [2]
  IC50: 580 ± 30 nM
NCI-H358 [3]
  IC50: 3120 nM
A549 [4]
  IC50: > 50000 nM
HCC827 [5]
  IC50: 160 ± 40 nM
NCI-H358 [6]
  IC50: 380 ± 200 nM
In vitro; MRC-5 normal lung fibroblasts, 2D culture
  IC50 at 72 h: 11100 nM
A549 [7]
  IC50: > 25000 nM
HCC827 [8]; HCC827, read-out: Proliferation Assay IC50 ± SD, HCC827 2D
  IC50: 200 ± 110 nM
NCI-H358 [9]
  IC50: > 25000 nM
A549 [10]
  IC50: > 50000 nM
HCC827 [11]; HCC827, read-out: Proliferation Assay IC50 ± SD, HCC827 3D
  IC50: 80 ± 20 nM
NCI-H358 [12]
  IC50: 380 ± 170 nM
